Data set [1] has as its target UDP-galactose mutase (Glf) (Mycobacterium tuberculosis, UniProt P9WIQ1). Briefly: Microtitre plate based screen of Glf (enzymatic inhibition). Type of data set: biochemical.
Data set [2] deals with Vero cells. Briefly: Cytotoxicity, alamar blue assay against Vero cells. It counts as cell-based. To be noted: for ToxIC50: unit not given; for IC50: Chlorocebus sabaeus, read-out: ToxIC50; for selectivity index (SI): summary b276.
Data set [3] deals with M. tuberculosis. Type of data set: in vivo, mice. To be noted: for viable M. tuberculosis, Spleen ± SEM: untreated controls 6.7 ± 0.16; for viable M. tuberculosis, Lungs ± SEM: untreated controls 8.0 ± 0.17.
Data set [4] can be described thus: Maximum Tolerated Dose (MTD), single oral dose in mice. The note with it: escalating dose 100, 300 and 500 mg/kg by oral gavage. The protocol: An assay for Maximum Tolerated Dose (MTD) was also utilized. […] Three different concentrations are tested, generally at 100, 300 and 500 mg/kg. The latter dose is about twice to five times the dose used for efficacy testing of the compound in mice. After 7 days of observation the mice are sacrificed and the organs are studied for any adverse effects. In case of abnormalities the organs are fixed in formalin and given for extensive pathology analysis.
Maximum tolerated dosing was performed on these selected compounds. An escalating dose of drug (100, 300 and 500 mg/kg) was given to mice by oral gavage.

The test system of data set [5] is M. tuberculosis H37Ra. Briefly: MIC against M. tuberculosis H37Ra, micro broth dilution in microtiter plates. To be noted: M. tuberculosis H37Ra; for TB MIC: Table 1; for TB MIC / MIC: 7 days at 37° C., MIC90; for MIC: Mycobacterium tuberculosis, H37RA, 168 h, read-out: TB MIC, Table 1. A general note: Dilution methods test growth across graded concentrations, often in twofold steps.

[6] abbreviates: Table 1, Vero cells, alamar blue.
Where [7] appears, read: Table 1, Vero cells, alamar blue, unit inferred.

Each structure is given as a SMILES string. Values after ≈ are worked out from the molar mass of the structure shown. “Also recorded” adds a separate entry of the source. Read-outs that look alike come from different tables or passages of the source.

Here are results for 14 compounds from US20050222408A1, “Heterocyclic amides with anti-tuberculosis activity” (priority 2003, published 2005).

Chain of UDP-galactose mutase (Glf) (P9WIQ1 whole entry): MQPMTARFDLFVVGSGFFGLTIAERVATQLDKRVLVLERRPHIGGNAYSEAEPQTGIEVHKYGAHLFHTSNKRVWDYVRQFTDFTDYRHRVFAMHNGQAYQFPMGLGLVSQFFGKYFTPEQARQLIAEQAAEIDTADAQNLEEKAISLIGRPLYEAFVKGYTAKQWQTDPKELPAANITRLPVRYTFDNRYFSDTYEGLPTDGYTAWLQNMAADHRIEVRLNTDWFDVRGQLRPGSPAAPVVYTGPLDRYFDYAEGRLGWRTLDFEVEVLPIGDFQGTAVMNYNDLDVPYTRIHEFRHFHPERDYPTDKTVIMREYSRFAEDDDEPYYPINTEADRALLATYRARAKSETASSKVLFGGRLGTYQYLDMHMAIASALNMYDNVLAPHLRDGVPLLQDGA

As to `O=C(Nc1cccc(Cl)c1)c1ccc([N+](=O)[O-])o1` [Compound 10, 5-Nitro-furan-2-carboxylic acid(3-chloro-phenyl)-amide], in data set [1], the “Glf inhibition” value was “best inhibitors of Glf”. The compound also yielded a ToxIC50 in data set [2] (setting [6]) of 6.86. Moreover, in data set [3] (300 mg/kg), the “viable M. tuberculosis, Spleen ± SEM” value is 7.3 ± 0.12 and the “viable M. tuberculosis, Lungs ± SEM” value was determined as 8.3 ± 0.21. Further, in data set [4], the “Maximum tolerated dosing, effect observed” value (from here on “Maximum tolerated dosing”) is “no effect at the maximum dose”.

Compound `O=C(Nc1cccc(F)c1)c1ccc([N+](=O)[O-])o1` [Compound 12, 5-Nitro-furan-2-carboxylic acid(3-fluoro-phenyl)-amide] returned a ToxIC50 in data set [2] (setting [6]) of 9.29. For the same compound, in data set [5], the “TB MIC” value worked out at 0.8 µg/mL. Besides, in data set [3] (300 mg/kg), the “viable M. tuberculosis, Spleen ± SEM” value is reported as 7.0 ± 0.11 and the “viable M. tuberculosis, Lungs ± SEM” value is 8.4 ± 0.24. The “Maximum tolerated dosing” value in data set [4] is “no effect at the maximum dose”.

`COc1cccc(NC(=O)c2ccc([N+](=O)[O-])o2)c1` [Compound 13, 5-Nitro-furan-2-carboxylic acid(3-methoxy-phenyl)-amide]: the “Glf inhibition” value in data set [1] is “best inhibitors of Glf”. The ToxIC50 in data set [2] (setting [6]) amounted to 18.63. For the same compound, the “TB MIC” value in data set [5] was found to be 0.8 µg/mL. In data set [3] (150 mg/kg), the “viable M. tuberculosis, Spleen ± SEM” value was determined as 7.2 ± 0.07 and the “viable M. tuberculosis, Lungs ± SEM” value was 8.0 ± 0.3. The “Maximum tolerated dosing” value in data set [4] is given as “some pathology at 500 mg/kg”.

The compound `COc1ccc(CNC(=O)c2ccc([N+](=O)[O-])o2)c(OC)c1` [Compound 22, 5-Nitro-furan-2-carboxylic acid 2,4-dimetboxy-benzylamide] yielded a ToxIC50 in data set [2] (setting [6]) of 5.38. For the same compound, the “TB MIC” value in data set [5] is 0.4 µg/mL.

For the compound `COc1ccc(CNC(=O)c2ccc([N+](=O)[O-])o2)cc1OC` [Compound 23, 5-Nitro-furan-2-carboxylic acid 3,4-dimethoxy-benzylamide], in data set [2] (Vero), the IC50 amounted to 18.2 µg/mL (≈ 59.3 µM). The “selectivity index (SI)” value in data set [2] worked out at 90.9. Moreover, the “anti-tuberculosis MIC activity” value in data set [5] was “as active as ethambutol and streptomycin”. In data set [3] (300 mg/kg), the “viable M. tuberculosis, Spleen ± SEM” value turned out to be 6.0 ± 0.19 and the “viable M. tuberculosis, Lungs ± SEM” value stood at 6.5 ± 0.25. Further, in data set [3] (oral), the “oral activity against M. tuberculosis in the mouse infection model” value is recorded as “significant oral activity”. In addition, in data set [4], the “Maximum tolerated dosing” value is “no effect at the maximum dose”.

Broadly, the MIC is the lowest concentration that inhibits growth of the organism. For the compound `COc1ccc(CCNC(=O)c2ccc([N+](=O)[O-])o2)cc1` [Compound 28, 5-Nitro-furan-2-carboxylic acid [2-(4-methoxy-phenyl)-ethyl]-amide], the IC50 in data set [2] (Vero) is 20.4 µg/mL (≈ 70.5 µM). Further, the minimal inhibitory concentration (MIC) in data set [5] stood at 0.8 µg/mL (≈ 2.76 µM).

Turning to `CC(NC(=O)c1ccc([N+](=O)[O-])o1)c1ccccc1` (stereo not shown) [Compound 29, 5-Nitro-furan-2-carboxylic acid(1-phenyl-ethyl)-amide], in data set [2] (setting [6]), the ToxIC50 is recorded as 25.63. The “TB MIC” value in data set [5] came to 1.6 µg/mL.

For `CC(NC(=O)c1ccc([N+](=O)[O-])o1)c1ccccc1` (stereo not shown) [Compound 30, 5-Nitro-furan-2-carboxylic acid(1-phenyl-ethyl)-amide], in data set [2] (setting [6]), the ToxIC50 is 23.59. For the same compound, the “TB MIC” value in data set [5] is 3.1 µg/mL.

With `COc1ccc(CCNC(=O)c2ccc([N+](=O)[O-])o2)cc1OC` [Compound 31, 5-Nitro-furan-2-carboxylic acid [2-(3,4-dimethoxy-phenyl)-ethyl]-amide], in data set [2] (Vero), the IC50 turned out to be 27.4 µg/mL (≈ 85.7 µM). Besides, in data set [5], the minimum inhibitory concentration (MIC) is 0.4 µg/mL (≈ 1.25 µM).

As for `COc1cccc(NC(=O)c2ccc(Br)o2)c1` [Compound 33, 5-Bromo-furan-2-carboxylic acid(3-methoxy-phenyl)-amide], in data set [2] (setting [7]), the IC50 was 61.2 µg/mL (≈ 207 µM). Moreover, the MIC in data set [5] was found to be 100 µg/mL (≈ 338 µM).

`COc1cccc(NC(=O)c2ccc(Sc3ccccc3)o2)c1` [Compound 36, 5-Phenylsulfanyl-furan-2-carboxylic acid(3-methoxy-phenyl)-amide]: the IC50 in data set [2] (setting [7]) was 25.7 µg/mL (≈ 79 µM). The minimal inhibitory concentration (MIC) in data set [5] came to 25 µg/mL (≈ 76.8 µM).

As to `O=C(NCc1ccc(N2CCN(Cc3ccccc3)CC2)cc1)c1ccc([N+](=O)[O-])o1` [Compound 66, 5-Nitro-furan-2-carboxylic acid 4-(4-benzyl-piperazin-1-yl)-benzylamide], in data set [2], the “selectivity index (SI)” value stood at 1597. Further, the “anti-tuberculosis MIC activity” value in data set [5] is recorded as “extremely potent; also recorded: more active than isoniazid”.

As for `NNC(=O)c1ccncc1` [Isoniazid, reference compound], in data set [3] (25 mg/kg), the “viable M. tuberculosis, Spleen ± SEM” value is listed as 3.2 ± 0.21 and the “viable M. tuberculosis, Lungs ± SEM” value was determined as 5.5 ± 0.21.

For `Cc1ncc([N+](=O)[O-])n1CCO` [Metronidazole, reference compound], in data set [3] (150 mg/kg), the “viable M. tuberculosis, Spleen ± SEM” value is given as 6.9 ± 0.04 and the “viable M. tuberculosis, Lungs ± SEM” value is 8.5 ± 0.18.
